Where a name gives a salt, the structure may show the parent alone. Read-outs that look alike come from different tables or passages of the source.
Key:
NR1/NR2A (NR1100) = NR1/NR2A (NR1100) (Rattus norvegicus, UniProt P35439+Q00959)
From the text: Plasmids containing the NR1100 (NR1G) and NR2A cDNA inserts were kindly provided by Dr. Nakanishi (Kyoto University Faculty of Medicine, Kyoto, Japan). Plasmids containing the NR2B, NR2C and NR2D cDNA inserts were kindly provided by Dr. P. Seeburg (Heidelberg University, Heidelberg, Germany). Plasmids were linearized with appropriate restriction enzyme prior to in vitro transcription using the Message Machine kit (Ambion, Inc., Austin, Tex.).
Female, oocyte-positive Xenopus laevis frogs were purchased from Xenopus I (Dexter, Mich.). […] Oocytes were injected with 50 nL of RNA solutions using an electronic microinjector (Drummond Inc., Broomall, Pa.). […] The injected oocytes were used for experiments following 1-5 days of incubation in Barth's solution at 18-20° C.
The microelectrodes were fabricated from borosilicate glass capillaries with a programmed puller (Sutter Instrument Co., Calif.). Microelectrode resistance was 1-3 MΩ_when filled with 3 M KCl.
Except where otherwise stated, oocytes were clamped at a holding potential of −70 mV during data acquisition. The membrane current was filtered at 500 Hz and sampled at 100 Hz. Drugs were applied using a gravity-driven external perfusion system. The working volume of the recording chamber was 30 μl and the rate of the perfusion was 50 μl/sec. The drug application lasted 10 sec and was followed by 60 s wash. Data acquisition and external perfusion were controlled using custom-written software implemented in the SuperScope II development environment (GW Instruments, Mass.). All experiments were performed at room temperature of 22-24° C. Peak or steady-state current measurements were normalized and expressed as a fraction of the peak or steady-state control current measurements, which were performed before and after application of every single concentration of agonists or steroids.
Concentration-response data were analyzed by nonlinear regress ion using the logistic equation Response=Emax/(1+(EC50/c)^nH), where c is concentration, Emaxis the maximum response, nHis the Hill coefficient. The data are presented as mean±SEM. EC50values are averaged as logarithms (De Lean et al., Am. J. Physiol. 235: E97-E102 (1978))±the SEM of the log EC50. […] The pooled data were simultaneously fitted to the logistic equation, either with Emax and EC50 constrained to be identical in the presence and absence of PS, or allowing one or both to vary independently. […] This was regarded as indicating a significant treatment effect of PS, but the change in EC50and Emaxwas not considered significant. […] No attempt was made to test the generally small changes in nHfor statistical significance.

GluR1 AMPA receptor = biological target: T1, GluR1 AMPA receptor (Rattus norvegicus, UniProt P19490); assay: Kainate-induced currents, Xenopus oocytes injected with GluR1 cRNA; format: cell-based
T1 construct: expressed in transfected cells; host or cells: Xenopus oocytes injected with GluR1 cRNA
From the text: (§1) Plasmids were obtained from the following individuals: Dr. Suzanne Zukin (Albert Einstein College of Medicine, Bronx, N.Y.), NR1100; Dr. Shigetada Nakanishi (Kyoto University Faculty of Medicine, Kyoto, Japan), NR2A; Dr. Stephen Heinemann (Salk Institute, San Diego, Calif.), GluR1 (flop), GluR3 (flop), and GluR6. Plasmids were linearized with BamH1 (NR1100), XhoI (NR2A, GluR1, GluR3) or XbaI (GluR6) prior to in vitro transcription with T3 (GluR1, GluR3, GluR6) or T7 (NR1100, NR2A) RNA polymerase using the Message Machine kit (Ambion, Austin, Tex.). […] RNA solutions (50-70 nl) were injected into oocytes for delivery of NR1100 (5 ng), NR1100:NR2A (1:10 ng), GluR1 (5 ng). GluR3 (5 ng), or GluR6 (20 ng). Oocytes were incubated in ND96 at 18-20° C. for 3-7 days prior to electrophysiological recording.
(§2) Steroid solutions were prepared as 70-100 mM frozen stocks in dimethyl sulfoxide (DMSO). The final DMSO concentration of all recording solutions was between 0.1% to 0.5% and was constant within an experiment.
(§3) Perfusion control and data acquisition were carried out using an automated oocyte electrophysiology workstation that was developed for the rapid collection of concentration-response data and real-time waveform analysis (Yaghoubi et al., Soc. Neurosci. Abstr. 20: 1109 (1995)). This system is implemented on a Macintosh IIci computer (Apple Computer, Cupertino, Calif.) equipped with MacA-DIOS II data acquisition and control hardware (GW Instruments, Somerville, Mass.). Drug application is controlled by the computer through a series of valves, using custom-written software based on the SuperScope II development environment, improving the efficiency and reproducibility of data collection. Experiments were carried out using an Axoclamp-2A voltage clamp amplifier (Axon Instruments, Foster City, Calif.) in two-electrode voltage clamp mode. Intracellular microelectrodes (1-3 MΩ) were filled with 3 M KCl. […] Membrane potential was clamped at −60 to −70 mV and stepped to −100 mV at the start of data acquisition unless otherwise stated. […] Current and voltage recordings were digitized at 100 Hz for analysis. GluR6 injected oocytes were treated for 10 min with 10 μg/ml concanavalin A to prevent fast desensitization.
(§4) Results are expressed as mean±S.E.M. Statistical comparisons were made using Student's t-test.

NR1111/NR2A = assay: NMDA-induced currents of NR1 splice variants, Xenopus oocytes, Example 4; format: cell-based
Experimental: Overnight cultures (500 ml) of transformed bacterial cells were prepared in order to grow sufficient quantities for maxiprep isolation of the plasmid CDNA. Maxipreps were done using a Sorvall RC-5B ultracentrifuge, Qiagen columns and cDNA was quantitated with spectrophotometry (OD260 and OD260/ OD280 ratio). The resulting plasmid cDNA was linearized by digestion with an appropriate restriction enzyme that cleaves distal to the cDNA insert (XhoI for NR2A or NotI for NR1100, NR1000, NR1111, NR1011, NR1101, NR1001). […] The samples were stored at −20° C. until use.
In vitro transcription was performed using the Ambion mMessage mMachine kit with T7 (NR1100, NR1000, NR1111, NR1011, NR1101, NR1001) RNA polymerase. The reaction was assembled on ice and allowed to incubate at 37° C. for 1-2 hr. The resulting mRNA was precipitated (reaction termination) using lithium chloride/5 mM EDTA solution and dissolved in RNase-free H2O. The concentration (OD260) and OD260/OD280 ratio (should be more than 1.5) was determined by spectrophotometer. The yield of mRNA was generally 15-30 μg. mRNA was stored at −80° C. until use.
Intracellular recording microelectrodes were fabricated from 100 μl borosilicate glass disposable micropipettes using a 2-step protocol on a standard horizontal Flaming-Brown micropipette puller.

NR1101/NR2A = NR1101/NR2A (Rattus norvegicus, UniProt P35439+Q00959); design: agonist Emax: dose or concentration left out as unconfirmed
GluR3 AMPA receptor = biological target: T2, GluR3 AMPA receptor (Rattus norvegicus, UniProt P19492); assay: Kainate-induced currents, Xenopus oocytes injected with GluR3 cRNA; format: cell-based
T2 construct: expressed in transfected cells; host or cells: Xenopus oocytes injected with GluR3 cRNA
From the text: as §1, §2, §3, §4

GluR6 kainate receptor = biological target: T3, GluR6 kainate receptor (Rattus norvegicus, UniProt P42260); assay: Kainate-induced currents, Xenopus oocytes injected with GluR6 cRNA; format: cell-based
T3 construct: expressed in transfected cells; host or cells: Xenopus oocytes injected with GluR6 cRNA (concanavalin A treated)
From the text: as §1, §2, §3, §4

[1] = biological target: T4, NR1100+NR2A NMDA receptor (Rattus norvegicus, UniProt P35439+Q00959); assay: NMDA-induced currents, Xenopus oocytes, Example 1; format: cell-based; details: for Percentage change in NMDA response: NR1100 + NR2A, steroid 100 μM, −100 mV
T4 construct: expressed in transfected cells; host or cells: Xenopus oocytes co-injected with NR1100 and NR2A cRNA
From the text: as §1, §2, §3, §4

NR1000/NR2A = NR1000/NR2A (Rattus norvegicus, UniProt P35439+Q00959); design: agonist Emax: dose or concentration left out as unconfirmed
Chain of NR1000/NR2A (Q00959 23-1464, other chains not shown): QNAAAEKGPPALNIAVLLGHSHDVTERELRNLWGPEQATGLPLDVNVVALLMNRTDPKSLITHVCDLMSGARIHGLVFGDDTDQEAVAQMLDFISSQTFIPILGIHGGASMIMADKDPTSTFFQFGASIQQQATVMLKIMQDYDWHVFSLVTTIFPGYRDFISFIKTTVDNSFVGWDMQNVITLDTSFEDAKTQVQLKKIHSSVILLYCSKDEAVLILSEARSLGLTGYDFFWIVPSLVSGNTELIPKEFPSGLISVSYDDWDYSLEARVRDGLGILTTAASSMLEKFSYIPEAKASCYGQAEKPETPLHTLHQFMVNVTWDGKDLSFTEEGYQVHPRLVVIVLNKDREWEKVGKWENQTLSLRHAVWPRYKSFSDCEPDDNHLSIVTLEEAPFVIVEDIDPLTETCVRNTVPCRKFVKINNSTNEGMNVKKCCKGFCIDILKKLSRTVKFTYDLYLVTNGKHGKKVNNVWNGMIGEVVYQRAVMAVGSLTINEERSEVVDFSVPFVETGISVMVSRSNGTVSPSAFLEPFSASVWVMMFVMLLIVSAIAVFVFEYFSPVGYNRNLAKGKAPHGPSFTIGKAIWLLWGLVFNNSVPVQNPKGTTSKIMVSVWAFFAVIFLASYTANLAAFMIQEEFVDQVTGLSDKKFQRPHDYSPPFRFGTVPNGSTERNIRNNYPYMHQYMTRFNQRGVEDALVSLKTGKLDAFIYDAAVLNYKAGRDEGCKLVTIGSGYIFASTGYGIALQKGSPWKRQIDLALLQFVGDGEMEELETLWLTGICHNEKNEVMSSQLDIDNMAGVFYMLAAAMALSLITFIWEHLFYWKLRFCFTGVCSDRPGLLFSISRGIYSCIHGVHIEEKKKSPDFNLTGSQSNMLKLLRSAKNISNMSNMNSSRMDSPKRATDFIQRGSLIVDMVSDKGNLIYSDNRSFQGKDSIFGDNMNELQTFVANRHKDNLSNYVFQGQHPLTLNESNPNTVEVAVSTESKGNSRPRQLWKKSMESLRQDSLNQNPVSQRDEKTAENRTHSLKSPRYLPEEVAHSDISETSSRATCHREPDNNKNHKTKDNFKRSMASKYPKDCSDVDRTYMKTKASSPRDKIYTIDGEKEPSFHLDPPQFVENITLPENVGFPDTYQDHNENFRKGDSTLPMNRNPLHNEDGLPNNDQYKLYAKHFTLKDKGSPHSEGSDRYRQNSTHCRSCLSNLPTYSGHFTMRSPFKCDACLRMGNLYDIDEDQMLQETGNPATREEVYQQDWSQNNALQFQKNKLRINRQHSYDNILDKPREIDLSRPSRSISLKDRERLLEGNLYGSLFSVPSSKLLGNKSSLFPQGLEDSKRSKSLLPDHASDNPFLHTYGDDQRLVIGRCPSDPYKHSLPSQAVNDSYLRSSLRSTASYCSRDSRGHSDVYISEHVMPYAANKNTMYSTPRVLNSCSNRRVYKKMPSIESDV

T4 sequence (Q00959 23-1464, other chains not shown): as above
Chain of NR1101/NR2A (Q00959 23-1464, other chains not shown): as above

CC(=O)[C@H]1CC[C@H]2[C@@H]3CC[C@@H]4C[C@H](OS(=O)(=O)O)CC[C@]4(C)[C@H]3CC[C@]12C [3α5βS, 3α5β-pregnanolone sulfate] was tested, and the “3α5βS nH” value (NR1/NR2A (NR1100)) was 1.39 ± 0.07, the “Percentage change in kainate response” value (GluR1 AMPA receptor) was −47 ± 12(3) % and the “difference in percentage inhibition between NR1011/NR2A and NR1111/NR2A” value (NR1111/NR2A; 100 μM 3α5βS) was 5%. For the same compound, the “3α5βS Emax” value (NR1101/NR2A; splice variant 101 /NR2A) was −0.90 ± 0.07, the “3α5βS nHill” value (NR1101/NR2A; splice variant 101 /NR2A) was 1.05 ± 0.25 and the “Percentage change in kainate response” value (GluR3 AMPA receptor) was −63 ± 8(4) %. For the same compound, the “Percentage change in kainate response” value (GluR6 kainate receptor) was −34 ± 5(7) %, the EC50 [1] was 41 µM and the “Percentage change in NMDA response” value ([1]; 100 μM NMDA) was −64 ± 3(7) %. The “3α5βS Emax” value (NR1000/NR2A; splice variant 000 /NR2A) was −0.89 ± 0.01 and the “3α5βS nHill” value (NR1000/NR2A; splice variant 000 /NR2A) was 0.98 ± .03.
For CN[C@H](CC(=O)O)C(=O)O [NMDA, N-methyl-D-aspartate], the “agonist Emax” value (NR1/NR2A (NR1100); +100 μM PS) was 1.60, the “agonist nH” value (NR1/NR2A (NR1100); +100 μM PS) was 1.20 ± 0.06 and the “agonist nH” value (NR1/NR2A (NR1100); no PS) was 1.13 ± 0.04. The “agonist Emax” value (NR1/NR2A (NR1100); no PS, normalized to 200 μM NMDA plus 10 μM glycine) was 1.36 ± 0.04, the EC50 (NR1/NR2A (NR1100); read-out: agonist EC50, +100 μM PS) was 39 µM and the EC50 (NR1/NR2A (NR1100); read-out: agonist EC50, no PS) was 73 µM. The “agonist Emax” value (NR1101/NR2A; NR1101/NR2A, absence of PS) was 1.33 ± 0.07, the “agonist nHill” value (NR1101/NR2A; NR1101/NR2A, absence of PS) was 1.31 ± 0.05 and the “agonist nHill” value (NR1101/NR2A; NR1101/NR2A, presence of 100 mM PS) was 1.15 ± 0.12. For the same compound, the “agonist Emax” value (NR1101/NR2A; NR1101/NR2A, presence of PS) was “(1.78 ± 0.06)”, the “NMDA Emax (normalized to 100 μM NMDA response)” value ([1]; NR1100+NR2A, +100 μM 3α5βS) was 0.35 and the “NMDA nH” value ([1]; NR1100+NR2A, +100 μM 3α5βS) was 1.66. For the same compound, the “NMDA Emax (normalized to 100 μM NMDA response)” value ([1]; NR1100+NR2A, +100 μM PS) was 3.21, the “NMDA nH” value ([1]; NR1100+NR2A, +100 μM PS) was 1.54 and the “NMDA Emax (normalized to 100 μM NMDA response)” value ([1]; NR1100+NR2A, control) was 1.14. For the same compound, the “NMDA nH” value ([1]; NR1100+NR2A, control) was 1.43, the EC50 ([1]; read-out: NMDA EC50, NR1100+NR2A, +100 μM 3α5βS) was 15 µM and the EC50 ([1]; read-out: NMDA EC50, NR1100+NR2A, +100 μM PS) was 30 µM. The “agonist Emax” value (NR1000/NR2A; NR1000/NR2A, absence of PS) was 1.20 ± 0.05, the “agonist nHill” value (NR1000/NR2A; NR1000/NR2A, absence of PS) was 1.31 ± 0.08 and the “agonist nHill” value (NR1000/NR2A; NR1000/NR2A, presence of 100 mM PS) was 1.18 ± 0.05. The “agonist Emax” value (NR1000/NR2A; NR1000/NR2A, presence of PS) was “(1.55 ± 0.04)”.
For pregnenolone sulfate [PS], the “PS nH” value (NR1/NR2A (NR1100)) was 1.33 ± 0.08, the “PS Emax (% Change)” value (NR1/NR2A (NR1100); 80 μM NMDA, 10 μM glycine) was “+167 ± 7%” and the “enhancement of NMDA plus glycine current” value (NR1/NR2A (NR1100); 100 μM PS, 80 μM NMDA) was 62±8%. The “PS Emax, percentage change in kainate-induced current” value (GluR1 AMPA receptor; GluR1, 100 μM kainate) was −99%, the “inhibition of kainate response” value (GluR1 AMPA receptor; GluR1, 200 μM PS) was 85±4% and the “reduction of kainate Imax” value (GluR1 AMPA receptor; GluR1, PS 100 μM) was 83%. For the same compound, the “inhibition of the response to kainate” value (GluR1 AMPA receptor; GluR1, steroid 100 μM) was “over 70%”, the “Percentage change in kainate response” value (GluR1 AMPA receptor; GluR1, steroid 100 μM, 100 μM kainate, −100 mV) was −85 ± 1(8) % and the “difference in mrc between NR1011/NR2A and NR1111/NR2A” value (NR1111/NR2A) was 1.2 fold. The “difference in mrc between NR1011/NR2A and NR1111/NR2A” value (NR1111/NR2A; 100 μM PS, pH 6.5) was 1.8 fold, the “difference in mrc between NR1011/NR2A and NR1111/NR2A” value (NR1111/NR2A; 100 μM PS, pH 7.5) was 1.6 fold and the “difference in percentage potentiation between NR1011/NR2A and NR1111/NR2A” value (NR1111/NR2A; 100 μM PS, pH 7.5) was 106%. For the same compound, the “difference in percentage potentiation between NR1011/NR2A and NR1111/NR2A” value (NR1111/NR2A; 100 μM PS, pH 8.5) was 91%, the “Maximum potentiation of NMDA-induced current by PS” value (NR1101/NR2A; NR1101/NR2A) was 1.66±0.10 fold and the “PS Emax” value (NR1101/NR2A; NR1101/NR2A) was 0.66 ± 0.10. For the same compound, the “PS nHill” value (NR1101/NR2A; NR1101/NR2A) was 1.52 ± 0.24, the “PS Emax, percentage change in kainate-induced current” value (GluR3 AMPA receptor; GluR3, 100 μM kainate) was −90% and the “inhibition of kainate response” value (GluR3 AMPA receptor; GluR3, 200 μM PS) was 81±3%. For the same compound, the “reduction of kainate Imax” value (GluR3 AMPA receptor; GluR3, PS 100 μM) was 71%, the “inhibition of the response to kainate” value (GluR3 AMPA receptor; GluR3, steroid 100 μM) was “over 70%” and the “Percentage change in kainate response” value (GluR3 AMPA receptor; GluR3, steroid 100 μM, 100 μM kainate, −100 mV) was −73 ± 3(8) %. For the same compound, the “PS nH, inhibition of kainate-induced current” value (GluR6 kainate receptor; GluR6, 10 μM kainate) was 0.29, the “inhibition of kainate response” value (GluR6 kainate receptor; GluR6, 500 μM PS) was 64±2% and the “reduction of kainate Imax” value (GluR6 kainate receptor; GluR6, PS 100 μM) was 33%. For the same compound, the “inhibition of the response to kainate” value (GluR6 kainate receptor; GluR6, steroid 100 μM) was 42%, the “Percentage change in kainate response” value (GluR6 kainate receptor; GluR6, steroid 100 μM, 10 μM kainate, −100 mV) was −42 ± 3(8) % and the “Percentage change in NMDA response” value ([1]; 100 μM NMDA) was “+281 ± 27(7) %”. The “maximum enhancement of NMDA response” value ([1]; NR1100+NR2A, 100 μM NMDA) was 343%, the “steroid Emax (NMDA-induced current relative to control)” value ([1]; NR1100+NR2A, 100 μM NMDA) was 4.43 and the “Maximum potentiation of NMDA-induced current by PS” value (NR1000/NR2A; NR1000/NR2A) was 2.14±0.08 fold. The “PS Emax” value (NR1000/NR2A; NR1000/NR2A) was 1.14 ± 0.08 and the “PS nHill” value (NR1000/NR2A; NR1000/NR2A) was 1.31 ± 0.06.
